Assay results as given in patent US10323038B2, “Pyrazole compounds and methods of making and using same” (ABIDE THERAPEUTICS, INC., priority 2015, dated 2019).
pIC50: −log10 of the molar value.

Columns and labels:
MAGL = MAGL (Mus musculus (Mouse), UniProt O35678); assay: In vitro competitive activity-based protein profiling, MAGL (mouse); assay type: biochemical; conditions: for inhibition at 1 µM: read-out: MAGL % inh. 1 μM (mouse)
Summary of the method: (§1)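 Proteomes at 1.0 mg/mL protein (mouse brain membranes or cell lysates; human prefrontal cortex or cell membranes) preincubated with inhibitor 30 min at 37 °C. Then FP-Rh or HT-01 probe (50 μM stock) added for 30 min at 37 °C. MAGL and FAAH activity measured by SDS-PAGE band fluorescence.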

FAAH = FAAH (Mus musculus (Mouse), UniProt O08914); assay: In vitro competitive activity-based protein profiling, FAAH (mouse); assay type: biochemical; conditions: for inhibition at 1 µM: read-out: FAAH % inh. 1 μM (mouse)
Summary of the method: as §1

FAAH, sequence (O08914 whole entry): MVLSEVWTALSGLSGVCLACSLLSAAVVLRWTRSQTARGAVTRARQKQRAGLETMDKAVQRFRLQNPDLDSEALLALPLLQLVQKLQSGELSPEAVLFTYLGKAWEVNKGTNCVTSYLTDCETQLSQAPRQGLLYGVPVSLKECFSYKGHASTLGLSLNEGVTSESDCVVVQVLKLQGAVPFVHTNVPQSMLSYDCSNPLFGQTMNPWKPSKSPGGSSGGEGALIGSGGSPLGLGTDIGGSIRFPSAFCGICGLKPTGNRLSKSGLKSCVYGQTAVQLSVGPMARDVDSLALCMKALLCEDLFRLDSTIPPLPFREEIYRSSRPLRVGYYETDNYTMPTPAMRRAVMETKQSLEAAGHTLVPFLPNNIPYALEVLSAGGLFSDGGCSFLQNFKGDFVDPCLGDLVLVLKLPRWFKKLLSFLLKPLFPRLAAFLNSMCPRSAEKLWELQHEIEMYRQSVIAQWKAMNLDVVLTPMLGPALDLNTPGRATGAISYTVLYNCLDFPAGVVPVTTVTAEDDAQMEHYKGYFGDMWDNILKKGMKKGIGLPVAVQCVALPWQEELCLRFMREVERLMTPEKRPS
MAGL, sequence (O35678 whole entry): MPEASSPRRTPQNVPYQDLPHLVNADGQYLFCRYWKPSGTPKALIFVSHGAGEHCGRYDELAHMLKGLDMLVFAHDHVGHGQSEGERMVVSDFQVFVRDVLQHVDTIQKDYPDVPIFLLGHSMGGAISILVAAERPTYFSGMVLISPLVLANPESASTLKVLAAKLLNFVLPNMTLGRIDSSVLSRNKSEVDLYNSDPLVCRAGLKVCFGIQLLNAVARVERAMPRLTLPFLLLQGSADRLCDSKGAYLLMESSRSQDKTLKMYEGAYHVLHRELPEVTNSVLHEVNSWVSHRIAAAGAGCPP

CC(=O)N(C)c1cnn(C(=O)N2CCC3(CCN(Cc4ccc(-c5cnccn5)cc4Cl)C3)C2)c1 (stereo not shown) [Example 264, N-(1-(7-(2-chloro-4-(pyrazin-2-yl)benzyl)-2,7-diazaspiro[4.4]nonane-2-carbonyl)-1H-pyrazol-4-yl)-N-methylacetamide]
inhibition at 1 µM (MAGL): ≥ 75% | inhibition at 1 µM (FAAH): ≥ 75%

CC(=O)N(C)c1cnn(C(=O)N2CC3CN(Cc4ccc(Oc5cncnc5)cc4C(F)(F)F)CC3C2)c1 (stereo not shown) [Example 265, N-methyl-N-(1-(5-(4-(pyrimidin-5-yloxy)-2-(trifluoromethyl)benzyl)octahydropyrrolo [3,4-c]pyrrole-2-carbonyl)-1H-pyrazol-4-yl)acetamide]
inhibition at 1 µM (MAGL): ≥ 75% | inhibition at 1 µM (FAAH): ≥ 75%

CC(=O)N(C)c1cnn(C(=O)N2CC3CN(Cc4ccc(-c5cnccn5)cc4Cl)CC3C2)c1 (stereo not shown) [Example 266, N-(1-(5-(2-chloro-4-(pyrazin-2-yl)benzyl)octahydropyrrolo[3,4-c]pyrrole-2-carbonyl)-1H-pyrazol-4-yl)-N-methylacetamide]
inhibition at 1 µM (MAGL): ≥ 75% | inhibition at 1 µM (FAAH): ≥ 75%

CC(=O)N(C)c1cnn(C(=O)N2CC3CN(Cc4ccc(-c5nccs5)cc4Cl)CC3C2)c1 (stereo not shown) [Example 267, N-(1-(5-(2-chloro-4-(thiazol-2-yl)benzyl)octahydropyrrolo[3,4-c]pyrrole-2-carbonyl)-1H-pyrazol-4-yl)-N-methylacetamide]
inhibition at 1 µM (MAGL): ≥ 75% | inhibition at 1 µM (FAAH): ≥ 75%

CC(=O)N(C)c1cnn(C(=O)N2CCC3(CCN(Cc4ccc(-c5ncccn5)cc4Cl)C3)C2)c1 (stereo not shown) [Example 268, N-(1-(7-(2-chloro-4-(pyrimidin-2-yl)benzyl)-2,7-diazaspiro[4.4]nonane-2-carbonyl)-1H-pyrazol-4-yl)-N-methylacetamide]
inhibition at 1 µM (MAGL): ≥ 75% | inhibition at 1 µM (FAAH): ≥ 75%

CC(=O)N(C)c1cnn(C(=O)N2CCC3(CCN(Cc4ccc(-c5nccs5)cc4Cl)C3)C2)c1 (stereo not shown) [Example 269, N-(1-(7-(2-chloro-4-(thiazol-2-yl)benzyl)-2,7-diazaspiro[4.4]nonane-2-carbonyl)-1H-pyrazol-4-yl)-N-methylacetamide]
inhibition at 1 µM (MAGL): ≥ 75% | inhibition at 1 µM (FAAH): ≥ 75%

CC(=O)N(C)c1cnn(C(=O)N2CC3CN(Cc4ccc(OC5CCN(C6CC6)CC5)cc4Cl)CC3C2)c1 (stereo not shown) [Example 270, N-(1-(5-(2-chloro-4-((1-cyclopropylpiperidin-4-yl)oxy)benzyl)octahydropyrrolo[3,4-c]pyrrole-2-carbonyl)-1H-pyrazol-4-yl)-N-methylacetamide]
inhibition at 1 µM (MAGL): ≥ 75% | inhibition at 1 µM (FAAH): ≥ 75%

CC(=O)N(C)c1cnn(C(=O)N2CC3CN(Cc4ccc(OC5CCN(C6CC6)CC5)cc4C(F)(F)F)CC3C2)c1 (stereo not shown) [Example 271, N-(1-(5-(4-((1-cyclopropylpiperidin-4-yl)oxy)-2-(trifluoromethyl)benzyl)octahydropyrrolo [3,4-c]pyrrole-2-carbonyl)-1H-pyrazol-4-yl)-N-methylacetamide]
inhibition at 1 µM (MAGL): ≥ 75% | inhibition at 1 µM (FAAH): ≥ 75%

CC(=O)N(C)c1cnn(C(=O)N2CC3CN(Cc4ccc(-c5ccncn5)cc4Cl)CC3C2)c1 (stereo not shown) [Example 272, N-(1-(5-(2-chloro-4-(pyrimidin-4-yl)benzyl)octahydropyrrolo[3,4-c]pyrrole-2-carbonyl)-1H-pyrazol-4-yl)-N-methylacetamide]
inhibition at 1 µM (MAGL): ≥ 75% | inhibition at 1 µM (FAAH): ≥ 75%

CC(=O)N(C)c1cnn(C(=O)N2CCC3(CCN(Cc4ccc(-c5ccncn5)cc4Cl)C3)C2)c1 (stereo not shown) [Example 273, N-(1-(7-(2-chloro-4-(pyrimidin-4-yl)benzyl)-2,7-diazaspiro[4.4]nonane-2-carbonyl)-1H-pyrazol-4-yl)-N-methylacetamide]
pIC50 (MAGL): 6.00 to 7.00 | inhibition at 1 µM (MAGL): ≥ 75% | pIC50 (FAAH): ≥ 7.00 | inhibition at 1 µM (FAAH): ≥ 75%

CS(=O)(=O)Nc1cnn(C(=O)N2CC3CN(Cc4cc(Cl)ccc4C(F)(F)F)CC3C2)c1 (stereo not shown) [Example 275, N-(1-(5-(5-chloro-2-(trifluoromethyl)benzyl)octahydropyrrolo [3,4-c]pyrrole-2-carbonyl)-1H-pyrazol-4-yl)methanesulfonamide]
pIC50 (MAGL): ≥ 7.00 | inhibition at 1 µM (MAGL): ≥ 75% | pIC50 (FAAH): 6.00 to 7.00 | inhibition at 1 µM (FAAH): ≥ 75%

CS(=O)(=O)Nc1cnn(C(=O)N2CCC3(CCN(Cc4cc(Cl)ccc4C(F)(F)F)C3)CC2)c1 [Example 276, N-(1-(2-(5-chloro-2-(trifluoromethyl)benzyl)-2,8-diazaspiro[4.5]decane-8-carbonyl)-1H-pyrazol-4-yl)methanesulfonamide]
inhibition at 1 µM (MAGL): ≥ 75% | inhibition at 1 µM (FAAH): ≥ 75%

CS(=O)(=O)Nc1cnn(C(=O)N2CCC3(CC2)CN(Cc2cc(Cl)ccc2C(F)(F)F)C3)c1 [Example 277, N-(1-(2-(5-chloro-2-(trifluoromethyl)benzyl)-2,7-diazaspiro[3.5]nonane-7-carbonyl)-1H-pyrazol-4-yl)methanesulfonamide]
pIC50 (MAGL): ≥ 7.00 | inhibition at 1 µM (MAGL): ≥ 75% | pIC50 (FAAH): ≥ 7.00 | inhibition at 1 µM (FAAH): ≥ 75%

CN(Cc1cc(Cl)ccc1C(F)(F)F)[C@H]1C[C@@H]2CN(C(=O)n3cc(NS(C)(=O)=O)cn3)C[C@@H]2C1 [Example 278, N-(1-[[trans-5-([[5-chloro-2-(trifluoromethyl)phenyl]methyl](methyl)amino)-octahydrocyclopenta[c]pyrrol-2-yl)carbonyl]-1H-pyrazol-4-yl)methanesulfonamide]
inhibition at 1 µM (MAGL): ≥ 75% | inhibition at 1 µM (FAAH): ≥ 75%

CS(=O)(=O)Nc1cnn(C(=O)N2CC3CN(Cc4ccc(N5CCCC5)cc4C(F)(F)F)CC3C2)c1 (stereo not shown) [Example 279, N-(1-(5-(4-(pyrrolidin-1-yl)-2-(trifluoromethyl)benzyl)octahydropyrrolo [3,4-c]pyrrole-2-carbonyl)-1H-pyrazol-4-yl)methanesulfonamide]
pIC50 (MAGL): ≥ 7.00 | inhibition at 1 µM (MAGL): ≥ 75% | pIC50 (FAAH): 6.00 to 7.00 | inhibition at 1 µM (FAAH): ≥ 75%

CS(=O)(=O)Nc1cnn(C(=O)N2CCC3(CCN(Cc4ccc(N5CCCC5)cc4C(F)(F)F)C3)CC2)c1 [Example 280, N-(1-(2-(4-(pyrrolidin-1-yl)-2-(trifluoromethyl)benzyl)-2,8-diazaspiro[4.5]decane-8-carbonyl)-1H-pyrazol-4-yl)methanesulfonamide]
inhibition at 1 µM (MAGL): ≥ 75% | inhibition at 1 µM (FAAH): ≥ 75%

CS(=O)(=O)Nc1cnn(C(=O)N2CCC3(CC2)CN(Cc2ccc(N4CCCC4)cc2C(F)(F)F)C3)c1 [Example 281, N-(1-(2-(4-(pyrrolidin-1-yl)-2-(trifluoromethyl)benzyl)-2,7-diazaspiro[3.5]nonane-7-carbonyl)-1H-pyrazol-4-yl)methanesulfonamide]
inhibition at 1 µM (MAGL): ≥ 75% | inhibition at 1 µM (FAAH): ≥ 75%

CN(Cc1ccc(N2CCCC2)cc1C(F)(F)F)[C@H]1C[C@@H]2CN(C(=O)n3cc(NS(C)(=O)=O)cn3)C[C@@H]2C1 [Example 282, N-(1-(trans-5-(methyl(4-(pyrrolidin-1-yl)-2-(trifluoromethyl)benzyl)amino)octahydrocyclopenta[c]pyrrole-2-carbonyl)-1H-pyrazol-4-yl) methanesulfonamide]
inhibition at 1 µM (MAGL): 50 to 75% | inhibition at 1 µM (FAAH): ≥ 75%

CS(=O)(=O)Nc1cnn(C(=O)N2CCC3(CCN(Cc4cc(Cl)ccc4C(F)(F)F)C3)C2)c1 (stereo not shown) [Example 284, N-[1-[(7-[[5-chloro-2-(trifluoromethyl)phenyl]methyl]-2,7-diazaspiro[4.4]nonan-2-yl)carbonyl]-1H-pyrazol-4-yl]methanesulfonamide]
inhibition at 1 µM (MAGL): 25 to 50% | inhibition at 1 µM (FAAH): ≥ 75%
